From patent US20180110824A1, “Macrocyclic Modulators of the Ghrelin Receptor” (Ocera Therapeutics, Inc., priority 2016, published 2018)
Read-outs that look alike come from different tables or passages of the source. Blank lines part the entries; values can stand above or below the compound they belong to.

How the values were obtained:
[1] = target: T1, human ghrelin receptor (hGHS-R1a) (Homo sapiens, UniProt Q92847); assay: Aequorin functional assay (ghrelin receptor), CHO-K1 cells co-expressing Gα16 and aequorin; type: cell-based; settings: Table 4; functional (agonist) activity; TFA salts unless otherwise noted; read-out: EC50
T1 construct: host or cells: CHO-K1 co-expressing Gα16 and mitochondrially targeted aequorin
Protocol: This cell line is typically constructed by transfection of the human ghrelin receptor into CHO-K1 cells co-expressing Gα16 and the mitochondrially targeted Aequorin (Ref #ES-WT-A5). • 1. […] Assay buffer: DMEM (Dulbecco's Modified Eagles Medium) containing 0.1% BSA (bovine serum albumin; pH 7.0). • 3. Coelenterazine (Molecular Probes, Leiden, The Netherlands). • Final test concentrations (N=8) for compounds of the invention: 10, 1, 0.3, 0.1, 0.03, 0.01, 0.003, 0.001 μM.
Stock solutions of compounds (10 mM in 100% DMSO) were provided frozen on dry ice and stored at −20° C. prior to use. […] Assay plates were then prepared by appropriate dilution in DMEM medium containing 0.1% BSA. Under these conditions, the maximal final DMSO concentration in the assay was <0.6%.
AequoScreen™ cells were collected from culture plates with Ca^2+ and Mg^2+-free phosphate buffered saline (PBS) supplemented with 5 mM EDTA, pelleted for 2 min at 1000×g re-suspended in DMEM—Ham's F12 containing 0.1% BSA at a density of 5×10^6 cells/mL, and incubated O/N at rt in the presence of 5 μM coelenterazine. After loading, cells were diluted with assay buffer to a concentration of 5×10^5 cells/mL.
For agonist testing, 50 μL of the cell suspension was mixed with 50 μL of the appropriate concentration of test compound or ghrelin (reference agonist) in 96-well plates (duplicate samples). Ghrelin (reference agonist) was tested at several concentrations concurrently with the test compounds in order to validate the experiment. The emission of light resulting from receptor activation in response to ghrelin or test compounds was recorded using the Hamamatsu FDSS 6000 reader (Hamamatsu Photonics K.K., Japan).
Results were expressed as Relative Light Units (RLU). […] EC50, Hill slope and % Emax values are reported.
• 1. Assay performed on CHO-K1 cells expressing the transfected, cloned human ghrelin receptor (hGHS-R1a) and Gα16. • 2. Suspended cells incubated O/N with coelenterazine. • 3. Stimulation of hGHS-R1a activates Gα16, causing […] Ca2+ release which ultimately leads to the oxidation of coelenterazine and the emission of a quantitative luminescent signal. • 4. Ghrelin was used as the positive control. • 5.

[2] = target: T2, human growth hormone secretagogue receptor (hGHS-R1a) (Homo sapiens, UniProt Q92847); assay: Competitive radioligand binding assay (ghrelin receptor), [125I]-ghrelin displacement on GHS-R/HEK 293 membranes
T2 construct: purchased PerkinElmer BioSignal #RBHGHSM; host or cells: HEK-293, stably transfected
Protocol: The competitive binding assay at the human growth hormone secretagogue receptor (hGHS-R1a) was carried out analogously to assays described in the literature.
Multiscreen Harvest plates-GF/C (Millipore, #MAHFC1H60) • 4. […] Bottom seal (Millipore, #MATAH0P00) • 7. […] Binding Buffer: 25 mM Hepes (pH 7.4), 1 mM CaCl2, 5 mM MgCl2, 2.5 mM EDTA, 0.4% BSA
Competition experiments were performed in a 300 μl filtration assay format. • 1. 220 μL of membranes diluted in binding buffer • 2. 40 μL of compound diluted in binding buffer • 3.
Compounds were provided frozen on dry ice at a stock concentration of 10 mM diluted in 100% DMSO and stored at −80° C. until the day of testing. On the test day, compounds were allowed to thaw at rt O/N and then diluted in assay buffer according to the desired test concentrations. Under these conditions, the maximal final DMSO concentration in the assay was 0.1%.
Plates were sealed with TopSeal-A, vortexed gently and incubated at rt for 30 min. The reaction was arrested by filtering samples through Multiscreen Harvest plates (pre-soaked in 0.5% polyethyleneimine) using a Tomtec Harvester, washed 9 times with 500 μL of cold 50 mM Tris-HCl (pH 7.4, 4° C.), and then plates were air-dried in a fumehood 30 min. A bottom seal was applied to the plates prior to the addition of 25 μL of MicroScint-0 to each well. […] Results were expressed as counts per minute (cpm).
Data were analyzed by GraphPad Prism (GraphPad Software, San Diego, Calif.) using […] non-linear regression analysis.
where total and non-specific binding represent the cpm obtained in the absence or presence of 1 μM ghrelin, respectively.
• 1. Binding performed on membranes prepared from HEK293 expressing the transfected, cloned human ghrelin receptor (hGHS-R1a). • 2. […] Ghrelin (unlabeled, 1 μM) was used to determine non-specific binding. • 4.

[3] = Binding activity at the human ghrelin receptor, [125I]-ghrelin displacement, read-out: Ki
[4] = Table 4, TFA salts unless otherwise noted, read-out: Ki
[5] = Table 3B, binding activity at the human ghrelin receptor, read-out: Ki

T2 sequence (Q92847 whole entry): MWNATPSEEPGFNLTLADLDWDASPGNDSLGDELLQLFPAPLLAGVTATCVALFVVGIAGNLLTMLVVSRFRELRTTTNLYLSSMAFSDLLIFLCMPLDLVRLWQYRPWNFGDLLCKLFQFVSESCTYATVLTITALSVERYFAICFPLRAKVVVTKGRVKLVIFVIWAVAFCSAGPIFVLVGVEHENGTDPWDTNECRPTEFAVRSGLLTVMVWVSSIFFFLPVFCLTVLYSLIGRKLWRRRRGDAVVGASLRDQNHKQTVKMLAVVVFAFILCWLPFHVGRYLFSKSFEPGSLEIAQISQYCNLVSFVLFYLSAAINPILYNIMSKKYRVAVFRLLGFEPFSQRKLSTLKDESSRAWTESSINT
T1 sequence (Q92847 whole entry): as above

EC50 [1]: 100 to 1000 nM
Ki [2, 3]: 100 to 1000 nM
Ki [2, 4]: 100 to 1000 nM
Structure (SMILES): CC(C)[C@@H]1NCCOc2ccccc2CCCNC(=O)[C@@H](Cc2ccccc2)NC(=O)CN(C)C1=O [Compound 3]

EC50 [1]: 100 to 1000 nM
Ki [2, 3]: 10 to 100 nM
Structure (SMILES): CCC(C)[C@@H]1NC[C@@H](C)Oc2ccccc2CCCNC(=O)[C@@H](Cc2ccccc2)NC(=O)[C@@H](C)N(C)C1=O (stereo partly drawn) [compound 36]

EC50 [1]: 100 to 1000 nM
Ki [2, 3]: 100 to 1000 nM
Ki [2, 4]: 100 to 1000 nM
Structure (SMILES): CCC[C@@H]1NCCOc2ccccc2CCCNC(=O)[C@@H](Cc2ccccc2)NC(=O)CN(CC)C1=O [compound 5]

EC50 [1]: 100 to 1000 nM
Ki [2, 3]: 100 to 1000 nM
Ki [2, 4]: 10 to 100 nM
Structure (SMILES): CC(C)C[C@@H]1NCCOc2ccccc2CCCNC(=O)[C@H](Cc2ccccc2)NC(=O)C2(CC2)NC1=O [compound 111]

Ki [2, 3]: 1000 to 10000 nM
Structure (SMILES): CC[C@@H](C)[C@@H]1C(=O)N[C@H](Cc2ccccc2)C(=O)NCCCc2ccccc2OCCN[C@@H]([C@@H](C)CC)C(=O)N1C [compound 149]

Ki [2, 3]: > 10000 nM
Structure (SMILES): CN1CC(=O)N[C@H](Cc2ccccc2)C(=O)NCCCc2ccccc2OCCN[C@@H](CCC(=O)O)C1=O [compound 73]

Ki [2, 3]: 100 to 1000 nM
Structure (SMILES): CCC[C@@H]1NCCOc2ccccc2CCCNC(=O)[C@H](Cc2ccccc2)NC(=O)CN(C)C1=O [compound 57]

Ki [2, 3]: 1000 to 10000 nM
Structure (SMILES): CCC[C@@H]1NCCOc2ccccc2CCCNC(=O)[C@@H](Cc2ccccc2)NC(=O)[C@H](CC(C)C)NC1=O [compound 62]

Ki [2, 3]: 10 to 100 nM
Structure (SMILES): CC(C)C[C@@H]1NCCOc2ccccc2CCCNC(=O)[C@@H](Cc2ccccc2)NC(=O)[C@@H](C)N(C)C1=O [compound 118]

Further lines, the compound ahead of its results:

Structure (SMILES): CC(C)C[C@@H]1NCCOc2ccccc2CCCNC(=O)[C@@H](Cc2ccccc2)NC(=O)C2(CCCC2)NC1=O [compound 97]
EC50 [1]: 100 to 1000 nM
Ki [2, 3]: 100 to 1000 nM
Ki [2, 4]: 10 to 100 nM

Structure (SMILES): C[C@@H]1C(=O)N[C@H](Cc2ccccc2)C(=O)NCCCc2ccccc2OCCN2CCCC[C@H]2C(=O)N1C [compound 226]
EC50 [1]: > 1000 nM
Ki ([2]; Table 3E, read-out: Ki): 10 to 100 nM
Ki [2, 4]: 10 to 100 nM
Ki ([2]; [125I]-ghrelin displacement, GHS-R/HEK 293 membranes, class symbols, read-out: Binding Activity at the Human Ghrelin Receptor (Ki)): 10 to 100 nM

Structure (SMILES): CCC[C@@H]1NCCOc2ccccc2CCCNC(=O)[C@@H](CCC(=O)O)NC(=O)CN(C)C1=O [compound 50]
Ki [2, 3]: > 10000 nM

Structure (SMILES): C[C@@H]1C(=O)N[C@H](Cc2ccc(F)cc2)C(=O)NCCC(C)(C)c2ccccc2OCCN[C@@H](C2CC2)C(=O)N1C [compound 378]
Ki [2, 5]: 100 to 1000 nM

Structure (SMILES): O=C(O)CC[C@@H]1NCCOc2ccccc2CCCNC(=O)[C@H](Cc2ccccc2)NC(=O)C2(CCCC2)NC1=O [compound 104]
Ki [2, 3]: > 10000 nM

Structure (SMILES): CC(C)C[C@H]1NCCOc2ccccc2CCCNC(=O)[C@@H](Cc2ccccc2)NC(=O)C2(CCCC2)NC1=O [compound 98]
Ki [2, 3]: > 10000 nM

Structure (SMILES): CCC(C)C1NCCOc2ccccc2C=CCNC(=O)C(Cc2ccsc2)NC(=O)C2(CCCC2)NC1=O (stereo not drawn) [compound 333]
Ki [2, 5]: 100 to 1000 nM

Structure (SMILES): CC[C@H](C)[C@@H]1NCCOc2ccccc2CC(C)CNC(=O)[C@H](Cc2cccc(Cl)c2)NC(=O)C2(CCCC2)NC1=O (stereo partly drawn) [compound 392]
Ki [2, 5]: 10 to 100 nM

Structure (SMILES): CC[C@H](C)[C@@H]1NCCCNCCNC(=O)[C@H](Cc2cccc(Cl)c2)NC(=O)C2(CCCC2)NC1=O [compound 390]
Ki [2, 5]: 100 to 1000 nM

Structure (SMILES): CCC[C@@H]1NCCOc2ccccc2CCCNC(=O)[C@@H](Cc2ccccc2)NC(=O)[C@@H](Cc2ccccc2)NC1=O [compound 65]
Ki [2, 3]: 1000 to 10000 nM

Structure (SMILES): CCC[C@@H]1NCCOc2ccccc2CCCNC(=O)[C@@H](Cc2ccccc2)NC(=O)[C@H](CCCCN)NC1=O [compound 68]
Ki [2, 3]: 1000 to 10000 nM

Structure (SMILES): C[C@@H]1C(=O)N[C@H](Cc2ccc(Cl)c(Cl)c2)C(=O)NCCCc2ccccc2OCCN[C@@H](C2CC2)C(=O)N1C [compound 315]
Ki [2, 5]: 0.1 to 10 nM
